Legend:
[1] = target: T1, DENV2 NS2B/NS3^pro (Dengue virus type 2, UniProt P14340); assay: biochemical; assay type: binding
T1 construct: tryptophan residues in the NS2B cofactor domain and in the NS3 protease domain; inferred from Ni-NTA purification and the pET-15b vector; made in house; host or cells: E. coli Lemo (DE3)
T1 sequence (P14340 with tags, fused parts or gaps I1442G/L1443G/I1444G/R1445G/T1446S/DEL1448-1472/K1473G/Q1474G/R1475G): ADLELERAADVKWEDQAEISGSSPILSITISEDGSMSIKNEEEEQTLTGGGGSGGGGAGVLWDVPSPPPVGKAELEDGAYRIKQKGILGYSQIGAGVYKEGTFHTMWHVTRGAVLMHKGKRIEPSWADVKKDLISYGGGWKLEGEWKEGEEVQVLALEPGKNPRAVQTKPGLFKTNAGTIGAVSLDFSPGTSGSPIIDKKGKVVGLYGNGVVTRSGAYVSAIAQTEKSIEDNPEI

[2] = target: T2, YFV NS2B/NS3^pro (Yellow fever virus, UniProt Q1X881); assay: biochemical; assay type: binding
T2 sequence (Q1X881 1485-1665 limits assumed): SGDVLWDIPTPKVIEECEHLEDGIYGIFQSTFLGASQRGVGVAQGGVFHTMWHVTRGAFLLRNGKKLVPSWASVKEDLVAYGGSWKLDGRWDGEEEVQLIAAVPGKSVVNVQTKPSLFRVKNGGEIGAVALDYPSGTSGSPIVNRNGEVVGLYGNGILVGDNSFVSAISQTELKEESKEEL
T2 sequence (Q1X881 1407-1446 partner limits assumed): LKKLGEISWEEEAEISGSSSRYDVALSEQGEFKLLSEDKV

[3] = target: T3, WNV NS2B/NS3^pro (West Nile virus, UniProt P06935); assay: biochemical; assay type: binding
T3 construct: tryptophan residues in the NS2B cofactor domain and in the NS3 protease domain; inferred from Ni-NTA purification and the pET-15b vector; made in house; host or cells: E. coli Lemo (DE3)
T3 sequence (P06935 1502-1679 limits assumed): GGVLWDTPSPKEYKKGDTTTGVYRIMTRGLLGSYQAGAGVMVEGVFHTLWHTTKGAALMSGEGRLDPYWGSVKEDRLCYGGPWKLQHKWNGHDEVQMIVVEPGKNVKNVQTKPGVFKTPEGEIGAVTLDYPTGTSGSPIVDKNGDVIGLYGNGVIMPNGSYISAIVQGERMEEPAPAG
T3 sequence (P06935 1424-1463 partner limits assumed): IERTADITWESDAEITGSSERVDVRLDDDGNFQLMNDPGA

[4] = target: T1, DENV2 NS2B/NS3^pro; assay: biochemical; assay type: biochemical
[5] = target: T3, WNV NS2B/NS3^pro; assay: biochemical; conditions: for inhibition at 10 µM: read-out: Inhibition of protease activity, primary inhibition test
[6] = target: T2, YFV NS2B/NS3^pro; assay: biochemical; conditions: for inhibition at 10 µM: read-out: Inhibition of protease activity, primary inhibition test
[7] = system: ZIKV NS2B/NS3^pro; parameters: method as in PMID 33661906; conditions: ZIKV NS2B/NS3pro, cited from earlier work
[8] = target: ZIKV NS2B/NS3^pro; parameters: method as in PMID 33661906; conditions: ZIKV NS2B/NS3pro, value ± STD; cited from earlier work

| SMILES | Kd [1] [µM] | Red edge excitation shift (REES) of the protease maximum fluorescence peak [1] | Kd [2] [µM] | Red edge excitation shift (REES) of the protease maximum fluorescence peak [2] | Kd [3] [µM] | Red edge excitation shift (REES) of the protease maximum fluorescence peak [3] | Concentration that inhibited 100% of the protease activity [4] [µM] | IC50 [4] [µM] | Inhibition Mode [4] | LE (ligand efficiency) [4] | Concentration that inhibited 100% of the protease activity [5] [µM] | IC50 [5] [µM] | Inhibition Mode [5] | LE (ligand efficiency) [5] | inhibition at 10 µM [5] [%] | Concentration that inhibited 100% of the protease activity [6] [µM] | IC50 [6] [µM] | Inhibition Mode [6] | LE (ligand efficiency) [6] | inhibition at 10 µM [6] [%] | also measured |
| --- | --- | --- | --- | --- | --- | --- | --- | --- | --- | --- | --- | --- | --- | --- | --- | --- | --- | --- | --- | --- | --- |
| COc1ccc(C2CC(=O)c3c(O)cc(OC4O[C@H](CO[C@@H]5O[C@@H](C)[C@H](O)[C@@H](O)[C@H]5O)[C@@H](O)[C@H](O)[C@H]4O)cc3O2)cc1O (some centres unmarked) [HSD, 3′,5,7-trihydroxy-4′-methoxy-flavanone-7-rhamnoglucoside] | 20.9 ± 2.4 | no shift | 29.5 ± 2.8 | no shift | 19.5 ± 2.8 | no shift | 140 | 55.7 ± 2.5 | noncompetitive | 0.14 | 120 | 50.7 ± 8.3 | noncompetitive | 0.14 | ~30 | 140 | 67.7 ± 7.5 | noncompetitive | 0.13 | ~30 |  |
| COc1ccc(C2CC(=O)c3c(O)cc(O)cc3O2)cc1O (centres unmarked) [HST, 3′,5,7-trihydroxy-4′-methoxyflavanone] | 18.7 ± 2.7 | 11 nm | 12.3 ± 2.2 | 22 nm | 13.5 ± 2 | 15 nm | 140 | 4.7 ± 0.8 | noncompetitive | 0.34 | 80 | 4.27 | noncompetitive | 0.34 | ~70 | 80 | 2.04 | noncompetitive | 0.36 | ~80 | IC50 ([7]; value ± STD): 12.6 ± 1.3 µM; Inhibition Mode [7]: noncompetitive; pIC50 [7]: 4.90; Kd [8]: 17.8 ± 2.9 µM |
